These are literature values, as cited in US20240358731A1, “SUMO PATHWAY AS AN OXYGEN SENSOR RELEVANT TO THE PATHOPHYSIOLOGY OF PULMONARY ARTERY HYPERTENSION AND CARDIAC ARRHYTHMIA” (Northeastern University, priority 2023, published 2024).

For series [1], the system named is SENP1 mRNA. To be noted: cited from earlier work.
Series [2] relates to pfSENP1. To be noted: cited from earlier work.

In the case of `CC(C)[C@]12O[C@H]1[C@@H]1O[C@]13[C@]1(O[C@H]1C[C@H]1C4=C(CC[C@@]13C)C(=O)OC4)[C@@H]2O` [Triptolide], the “SENP1 mRNA levels” value in series [1] is listed as “decreased SENP1 mRNA levels”. Turning to `O=C(O)CN(NC(=O)c1ccc(CNC(=O)c2cccc(C(=O)O)c2)cc1)C(=O)[C@H]1O[C@@H]1C(=O)N(Cc1cccc2ccccc12)Cc1cccc2ccccc12` [JCP-666], the pfSENP1 inhibition entry in series [2] was “inhibitor”.
